Results as given in article PMC3539664, “Convergent synthesis and evaluation of ^18F-labeled azulenic COX2 probes for cancer imaging” (Frontiers in Oncology, 2013).
“Also recorded” adds a separate entry of the source.

Legend:
[1] = tested on: C57MG tumors; assay: In vivo microPET/CT imaging of COX2 in tumor-bearing mouse model; set-up: species or system mice
Description: The experimental protocol for animal imaging was approved by the Vanderbilt Medical Center Institutional Animal Care and Use Committee. Nude mice 6–8 weeks of age (n = 8, from Jackson Laboratory, Bar Harbor, ME, USA) were implanted subcutaneously under anesthesia (isoflurane mixed […]) with 1.0 × 10^6 C57MG cells in the mammary fat pad. The progress of tumor growth was monitored via every-other-day measurement of tumor size and animal weight. When the tumors reached approximately 4 mm in diameter, in vivo PET imaging was performed.
Positron emission tomography imaging was performed using the microPET Focus 220 (Siemens Pre-clinical, Knoxville, TN, USA) in a static acquisition mode for 30 min at 60, 120, and 150 min after injection of ^18F-COX2 probe 13 (150–200 μCi, 100–130 μL) into awake, non-fasted mice (n = 8) via the tail vein. To obtain whole-body scans, mice were placed in a supine position. The data were acquired in a 3-D mode with an axial span of approximately 8 cm. During the scanning, the animals were anesthetized using isoflurane and the temperature inside the scanner was maintained at 30°C using a pad connected to a circulating warm water bath. After PET imaging, a CT image was acquired using the microCAT II (Siemens Pre-clinical, Knoxville, TN, USA) using the same animal holder with the subjects maintained under anesthesia throughout, and then the mice were immediately euthanized upon completion of the CT scan. PET images were reconstructed using the iterative MAP reconstruction algorithm with 18 iterations and a beta smoothing value of 0.001 into 128 × 128 × 95 slices with a voxel size of 0.475 mm × 0.475 mm × 0.796 mm. The PET and CT images were co-registered using the imaging tool AMIDE ([Loening and Gambhir, 2003]).

[2] = Biodistribution by gamma counting of tissues after imaging; type: in vivo; details: non-fasted tumor-bearing mice (n = 3), 150 min post injection (Figure 5)
Description: After the imaging session, the mice were euthanized and hearts, muscles, blood, livers, spleens, kidneys, stomachs, brains, intestines, tumors, and lungs were retrieved. The tissues were weighed and assessed for ^18F radioactivity using a gamma counter (CRC-15W, Capintec, Ramsey, NJ, USA).

## Cc1csc(Cc2c3cccccc-3c(C(=O)c3ccc([18F])cc3)c2C)n1 [compound 13]
[1]; non-fasted C57MG tumor-bearing mice, i.v., PET imaging
  Hepatic uptake of the probe (PET): predominant hepatic uptake
[1]; non-fasted C57MG tumor-bearing mice, i.v., up to 2.5 h post injection
  Bone signal / in vivo defluorination (PET): negligible signal in the bone; also recorded: no defluorination of the probe in vivo
[1]; non-fasted nude mice with C57MG mammary fat pad tumors, i.v. tail vein, static whole-body scan 150 min after administration, vs background p < 0.05
  Tumor accumulation and retention of the probe (PET, PET/CT): significant accumulation in the tumor
[2]
  Biodistribution: tissue uptake (% injection dose/g tissue): the probe accumulated in the tumor; also recorded: highest uptake was detected in the liver, followed by the intestine
